SMILES strings stand for the structures. Read-outs that look alike come from different tables or passages of the source.

Holding throughout (assay type): cell-based, hepatitis C virus
Assay [1] relates to genotype 1b NS3/4a protease inhibitor resistant variant D168A transient HCV replicon in Huh-7-derived cells. In words: Transient-transfected HCV replicon EC50, genotype 1b D168A. The following applies: Hepatitis C virus, 72 h, read-out: EC50 1B D168A, transient-transfected replicon genotype 1b D168A resistant variant, 72 h. (In antiviral work, replicon cells carry a viral genome segment that copies itself.)

Assay [2] relates to genotype 1b (Con1) wild type transient HCV replicon in Huh-7-derived cells. In words: Transient-transfected HCV replicon EC50, genotype 1b wild type. The following applies: Hepatitis C virus, 72 h, read-out: EC50 1B WT.
Assay [3] has as its system genotype 2a (JFH-1) stable HCV replicon in Huh-7-derived cells. In words: Stable subgenomic HCV replicon EC50, genotype 2a (Renilla luciferase). The note with it: Hepatitis C virus, stable replicon genotype 2a, 72 h, read-out: EC50 2A RLUC. The protocol:
(§1) Antiviral potency (EC50) was determined in both stable subgenomic HCV replicon cell lines and transient-transfected HCV replicon cells. The term half maximal effective concentration (EC50) refers to the concentration of a drug which induces a response halfway between the baseline and maximum after the exposure time specified below.
(§2) Stable subgenomic HCV replicons for genotype 1a, 1b, 2a, 3a, and 4a were established in Huh-7-derived cells as described by Lohmann et al (Lohmann V, Korner F, Koch J, et al Replication of subgenomic hepatitis C virus RNAs in a hepatoma cell line. Science 1999; 285:119-3) Each stable cell line contains a bicistronic HCV replicon that encodes a humanized Renilla luciferase (hRLuc) reporter gene fused to a selectable neomycin-resistance gene, followed by an EMCV IRES and the NS3-NS5B coding region of HCV. […] Luciferase activity was measured as a marker for intracellular HCV replication levels.
(§3) The genotype 1a stable replicon was derived from the H77 HCV strain and contained adaptive mutations P1496L and S2204I. The genotype 1b stable replicon was derived from the Con1 HCV strain and contained adaptive mutations E1202G, T1280I and K1846T. […] The genotype 3a stable replicon was derived from the S52 HCV strain and contained adaptive mutations P1121L, A1198T and S2210I (equivalent to S2204I in genotype 1). The genotype 4a stable replicon was derived from the ED43 HCV strain and contained adaptive mutations Q1691R and S2204I. All replicon cell lines were propagated in Huh-7-derived cells and maintained in Dulbecco's modified Eagle's Medium (DMEM) supplemented with 10% fetal bovine serum (FBS) and 0.5 mg/mL G418.
(§4) To perform EC50 assays, cells from each HCV replicon were dispensed into 384-well plates. Compounds were dissolved in DMSO at a concentration of 10 mM and diluted in DMSO using an automated pipetting instrument. Three-fold serially diluted compounds were directly added to the cells using an automated instrument. […] Seventy-two hours later, cells were lysed and Renilla luciferase activity were quantified as recommended by the manufacturer (Promega-Madison, Wis.). Non-linear regression was performed to calculate EC50 values.

Assay [4] has as its system genotype 4a (ED43) stable HCV replicon in Huh-7-derived cells. The assay can be described thus: Stable subgenomic HCV replicon EC50, genotype 4a (Renilla luciferase). The note with it: Hepatitis C virus, 72 h, read-out: EC50 4A RLUC. How it is done: as §1, §2, §3, §4
Assay [5] relates to genotype 1a NS3/4a protease inhibitor resistant variant R155K transient HCV replicon in Huh-7-derived cells. The assay can be described thus: Transient-transfected HCV replicon EC50, genotype 1a R155K. The note with it: Hepatitis C virus, 72 h, read-out: EC50 1A R155K, transient-transfected replicon genotype 1a R155K resistant variant, 72 h.
In assay [6] the test system is genotype 1b (Con1) stable HCV replicon in Huh-7-derived cells. The assay can be described thus: Stable subgenomic HCV replicon EC50, genotype 1b (Renilla luciferase). The following applies: Hepatitis C virus, stable replicon genotype 1b, 72 h, read-out: EC50 1B RLUC. The protocol:
as §1, §2, §3, §4

Assay [7] has as its system genotype 1a (H77) stable HCV replicon in Huh-7-derived cells. The assay can be described thus: Stable subgenomic HCV replicon EC50, genotype 1a (Renilla luciferase). The note with it: Hepatitis C virus, stable replicon genotype 1a, 72 h, read-out: EC50 1A RLUC. The protocol: as §1, §2, §3, §4
The subject of assay [8] is genotype 3a (S52) stable HCV replicon in Huh-7-derived cells. In words: Stable subgenomic HCV replicon EC50, genotype 3a (Renilla luciferase). The following applies: Hepatitis C virus, 72 h, read-out: EC50 3A RLUC. How it is done:
as §1, §2, §3, §4

For assay [9], the system named is genotype 1a (H77) wild type transient HCV replicon in Huh-7-derived cells. In words: Transient-transfected HCV replicon EC50, genotype 1a wild type. The following applies: Hepatitis C virus, 72 h, read-out: EC50 1A WT.
The mark [10] stands for this setting: transient-transfected replicon genotype 1b wild type.
Where [11] appears, read: transient-transfected replicon genotype 1a wild type.

As to `COc1ccc2nc3c(nc2c1)O[C@H]1CN(C(=O)[C@H](C(C)(C)C)NC(=O)O[C@@H]2C[C@H]2CCCCC3)[C@H](C(=O)N[C@]2(C(=O)NS(=O)(=O)C3(C)CC3)C[C@H]2CCF)[C@@H]1C` [Example 23, (1aR,5S,8S,9S,10R,22aR)-5-tert-butyl-N-[(1R,2S)-2-(2-fluoroethyl)-1-{[(1-methylcyclopropyl)sulfonyl]carbamoyl}cyclopropyl]-14-methoxy-9-methyl-3,6-dioxo-1,1a,3,4,5,6,9,10,18,19,20,21,22,22a-tetradecahydro-8H-7,10-methanocyclopropa[18,19][1,10,3,6]dioxadiazacyclononadecino[11,12-b]quinoxaline-8-carboxamide], the EC50 (in general, the concentration that produces a half-maximal response) came to 173 nM in [1]; 3.6 nM in assay [2] (setting [10]); 23 nM in [3]; 9.9 nM in [4]; 36 nM in [5]; 7.5 nM in [6]. The 50% effective concentration (EC50) was determined as 13 nM in assay [7], 587 nM in [8] and 9.5 nM in assay [9] (setting [11]).

`CC[C@@H]1[C@@H]2CN(C(=O)[C@H](C(C)(C)C)NC(=O)O[C@@H]3C[C@H]3CCCCCc3nc4ccc(OC)cc4nc3O2)[C@@H]1C(=O)N[C@]1(C(=O)NS(=O)(=O)C2CC2)C[C@H]1C(F)F` [Example 2, (1aR,5S,8S,9S,10R,22aR)-5-tert-butyl-N-[(1R,2R)-1-[(cyclopropylsulfonyl)carbamoyl]-2-(difluoromethyl)cyclopropyl]-9-ethyl-14-methoxy-3,6-dioxo-1,1a,3,4,5,6,9,10,18,19,20,21,22,22a-tetradecahydro-8H-7,10-methanocyclopropa[18,19][1,10,3,6]dioxadiazacyclononadecino[11,12-b]quinoxaline-8-carboxamide]: the EC50 in assay [1] came to 33 nM; in assay [2] (setting [10]), 1 nM; in [3], 3.9 nM; in assay [4], 2.7 nM; in [5], 7 nM; in [6], 3.1 nM. For the same molecule, the EC50 in [7] turned out to be 4 nM; in [8] it was 77 nM; in assay [9] (setting [11]) it was 2.4 nM.

`COc1ccc2nc3c(nc2c1)O[C@H]1CN(C(=O)[C@H](C(C)(C)C)NC(=O)O[C@@H]2C[C@H]2CCCCC3)[C@H](C(=O)N[C@]2(C(=O)NS(=O)(=O)C3CC3)C[C@H]2C(F)F)[C@@H]1C` [Example 19, (1aR,5S,8S,9S,10R,22aR)-5-tert-butyl-N-[(1R,2R)-1-[(cyclopropylsulfonyl)carbamoyl]-2-(difluoromethyl)cyclopropyl]-14-methoxy-9-methyl-3,6-dioxo-1,1a,3,4,5,6,9,10,18,19,20,21,22,22a-tetradecahydro-8H-7,10-methanocyclopropa[18,19][1,10,3,6]dioxadiazacyclononadecino[11,12-b]quinoxaline-8-carboxamide]: the half-maximal effective concentration (EC50) in assay [1] amounted to 28 nM; in assay [2] it was 1.1 nM; in assay [3], 4.6 nM; in assay [4] it was 3.1 nM; in assay [5], 3.4 nM; in assay [6], 2.6 nM. Also, the EC50 was 4 nM in [7], 89 nM in [8] and 2.1 nM in assay [9].

For the molecule `COc1ccc2nc3c(nc2c1)O[C@H]1CN(C(=O)[C@H](C(C)(C)C)NC(=O)O[C@@H]2CCC[C@H]2CCCCC3)[C@H](C(=O)N[C@]2(C(=O)NS(=O)(=O)C3CC3)C[C@H]2C(F)F)[C@@H]1C` [Example 28, (3aR,7S,10S,11S,12R,24aR)-7-tert-butyl-N-[(1R,2R)-1-[(cyclopropylsulfonyl)carbamoyl]-2-(difluoromethyl)cyclopropyl]-16-methoxy-11-methyl-5,8-dioxo-1,2,3,3a,5,6,7,8,11,12,20,21,22,23,24,24a-hexadecahydro-10H-9,12-methanocyclopenta[18,19][1,10,3,6]dioxadiazacyclononadecino[11,12-b]quinoxaline-10-carboxamide], the 50% effective concentration (EC50) in assay [1] is 54 nM; in [2] (setting [10]), 3.4 nM; in assay [3], 6.2 nM; in [4] it was 4.1 nM; in [5], 9 nM; in [6], 4.6 nM. Besides, the EC50 in [7] turned out to be 6.7 nM; in [8] it was 266 nM; in assay [9] (setting [11]) it was 3 nM.

As to `COc1ccc2nc3c(nc2c1)O[C@H]1CN(C(=O)[C@H](C(C)(C)C)NC(=O)O[C@@H]2C[C@H]2CCCCC3)[C@H](C(=O)N[C@]2(C(=O)NS(=O)(=O)C3CC3)C[C@H]2CCF)[C@@H]1C` [Example 22, (1aR,5S,8S,9S,10R,22aR)-5-tert-butyl-N-[(1R,25)-1-[(cyclopropylsulfonyl)carbamoyl]-2-(2-fluoroethyl)cyclopropyl]-14-methoxy-9-methyl-3,6-dioxo-1,1a,3,4,5,6,9,10,18,19,20,21,22,22a-tetradecahydro-8H-7,10-methanocyclopropa[18,19][1,10,3,6]dioxadiazacyclononadecino[11,12-b]quinoxaline-8-carboxamide], the concentration for a half-maximal effect (EC50) stood at 242 nM in assay [1]; 2.6 nM in assay [2] (setting [10]); 27 nM in assay [3]; 11 nM in [4]; 48 nM in assay [5]; 7.5 nM in assay [6]. Also, the half-maximal effective concentration (EC50) in [7] worked out at 15 nM; in [8], 727 nM; in [9] (setting [11]), 8.6 nM.

As to `CC[C@@H]1C[C@]1(NC(=O)[C@@H]1[C@H](C)[C@@H]2CN1C(=O)[C@H](C(C)(C)C)NC(=O)O[C@@H]1C[C@H]1CCCCCc1nc3ccc(OC)cc3nc1O2)C(=O)NS(=O)(=O)C1CC1` [Example 20, (1aR,5S,8S,9S,9S,10R,22aR)-5-tert-butyl-N-{(1R,2R)-1-[(cyclopropylsulfonyl)carbamoyl]-2-ethylcyclopropyl}-14-methoxy-9-methyl-3,6-dioxo-1,1a,3,4,5,6,9,10,18,19,20,21,22,22a-tetradecahydro-8H-7,10-methanocyclopropa[18,19][1,10,3,6]dioxadiazacyclononadecino[11,12-b]quinoxaline-8-carboxamide], the half-maximal effective concentration (EC50) in assay [1] worked out at 90 nM; in assay [2] it was 2.7 nM; in assay [3], 19 nM; in assay [4], 5.9 nM; in assay [5], 17 nM; in assay [6], 5.2 nM. In addition, the 50% effective concentration (EC50) in [7] stood at 8.1 nM; in [8] it was 392 nM; in assay [9], 3.4 nM.

For `CC[C@@H]1[C@@H]2CN(C(=O)[C@H](C(C)(C)C)NC(=O)O[C@@H]3C[C@H]3CCCCCc3nc4ccc(OC)cc4nc3O2)[C@@H]1C(=O)N[C@]1(C(=O)NS(=O)(=O)C2CC2)C[C@H]1CC` [Example 3, (1aR,5S,8S,9S,10R,22aR)-5-tert-butyl-N-{(1R,2R)-1-[(cyclopropylsulfonyl)carbamoyl]-2-ethylcyclopropyl}-9-ethyl-14-methoxy-3,6-dioxo-1,1a,3,4,5,6,9,10,18,19,20,21,22,22a-tetradecahydro-8H-7,10-methanocyclopropa[18,19][1,10,3,6]dioxadiazacyclononadecino[11,12-b]quinoxaline-8-carboxamide], the EC50 in [1] is 128 nM; in assay [2] (setting [10]), 3.5 nM; in assay [3], 28 nM; in assay [4] it was 10 nM; in assay [5], 32 nM; in [6], 9.8 nM. The half-maximal effective concentration (EC50) in [7] turned out to be 11.7 nM; in [8] it was 546 nM; in [9] (setting [11]), 6.6 nM.
